Here are results for two molecules from article PMC11394972 (International Journal of Molecular Sciences, 2024).

For the test, the system named is MazF-mt3. The class given is biochemical, Mycobacterium tuberculosis. The conditions noted are these: FAM-labeled 13-nt RNA substrate, 37 °C, 30 min.

As for “MazE-mt3 α3–α4: peptide corresponding to the last two helices (α3-α4, Leu46-Trp82) of MazE-mt3; cocrystallized with MazF-mt3 (PDB 8ZWS) (LTGQIDRALESIHGTDEAEALAVANAYRVLETMDDEW)”, where the note is “Figure 4A”, the “reduction of the cleavage of the WT MazF-mt3 enzyme” value was determined as 15%.

B1: MazE-mt3: full-length antitoxin of the M. tb MazEF-mt3 toxin–antitoxin pair, recombinantly expressed (protein)
chain: MKTAISLPDETFDRVSRRASELGMSRSEFFTKAAQRYLHELDAQLLTGQIDRALESIHGTDEAEALAVANAYRVLETMDDEW
modifications: left off: His tag, end not stated, state not stated
notes: full-length antitoxin of the M. tb MazEF-mt3 toxin–antitoxin pair, recombinantly expressed
As to B1, for the setting “20 mM Tris-HCl pH 8.0, 150 mM NaCl, urea-PAGE, Figure S8”, the “suppression of the cleavage activity of MazF-mt3” value is given as “fully suppress”.
